Key:
Type in all cases: in vivo, human
[1] = Example 3: plasma HMB with probiotic supplementation; conditions: 0.8 g HMB-FA vs 1.0 g CaHMB; before and after 14 days of probiotic
Experimental: A study was conducted to examine the bioavailability of HMB-acid and CaHMB when also administering a probiotic. Six volunteers were tested before and after two weeks of probiotic supplementation. Between trials, each volunteer took one dose of probiotics (BC^30) every morning for 14 days. At each trial, baseline plasma HMB levels were measured, then gave each volunteer one serving of HMB (1.0 g of CaHMB or 0.8 g of HMB-FA). Plasma HMB levels were measured at 2, 5, 10, 15, 25, 35, 45, 60, 90, 120, 150, and 180 min, as well as at 6, 12, and 24 hours.

[2] = 12-week periodized resistance-training study of HMB-FA: strength and power
Text: The current study was a randomized, double-blind, placebo- and diet-controlled experiment consisting of a 12-week-periodized resistance-training program. The training protocol was divided into three phases and consisted of a non-linear-periodized resistance-training program for the first 8 weeks, followed by a 2-week overreaching cycle, and finally a 2-week taper of the training volume. Muscle mass, body composition, strength, power, resting plasma testosterone, cortisol, and creatine kinase (CK) levels were examined collectively at the end of weeks 0, 4, 8, and 12 to assess the chronic effects of HMB; these measures were also assessed at the end of weeks 9 and 10, corresponding to the mid- and endpoints of the phase 2 overreaching cycle.
Twenty-four resistance-trained males were tested and included in the study. Subjects were organized into quartile blocks based on their LBM and strength. Following this, each quartile was randomized to one of the treatment groups using computer-generated random numbers. After treatment assignment, the groups were assessed to confirm there were no differences between groups. Of those randomized to the treatments, three subjects dropped from the placebo group, two because of injury and one because of the time commitment, while one dropped from the HMB-FA group due to injury. All drop outs occurred during the first 4 weeks of the study. The remaining 20 subjects (21.6±0.5 years of age) consisting of nine placebo (87.1±4.8 kg; 180.9 cm) and 11 supplemented (83.1±2.8 kg; 179.0±2.1) males with an average squat, bench press, and deadlift of 1.7±0.04, 1.3±0.04, and 2.0±0.05 times their bodyweight, respectively, completed the study. There were no significant differences for age, body weight, height, or BMI between the treatment groups at the start of the study
Strength was assessed via a one-repetition maximum (1-RM) testing of the back squat, bench press, and deadlift. The intraclass correlation coefficient (ICC) for the test-retest of strength in the squat, bench press, and deadlift ranged from r=0.956 to 0.982. Body composition [LBM, fat mass (FM), and total mass] was determined on a Lunar Prodigy dual X-ray absorptiometry (DXA) apparatus (software version, enCORE 2008, Madison, Wis., USA). Tests for the DXA were performed at the same time of day in a fasted state and the ICC was r=0.981. Skeletal muscle hypertrophy was assessed via changes in ultrasonography (GE Logiq e 2008, Wauwatosa, Wis., USA) determined combined muscle thickness of the vastus lateralis (VL) and vastus intermedius (VI) muscles. The ICC for the test-retest of muscle thickness measurements was r=0.975.
Peak power (PP) was assessed during maximal cycling (modified Wingate test) and jumping movements. During the cycling test, the volunteer was instructed to cycle against a predetermined resistance (7.5% of body weight) as fast as possible for 10 s on a cycle ergometer (Monark model 894e, Vansbro, Sweden). Wingate PP was recorded using Monark anaerobic test software (Version 1.0, Monark, Vansbro, Sweden). From completion of Wingate tests performed over several days, the ICC for Wingate PP was 0.966.
Measurements of PP for the vertical jump were also taken on a multicomponent AMTI force platform (Advanced Mechanical Technology, Watertown, Mass. USA) which interfaced with a personal computer at a sampling rate of 1,000 Hz). Data acquisition software (LabVIEW, version 7.1; National Instruments Corporation, Austin, Tex., USA) was used to calculate vertical jump PP. The ICC for VJ PP was 0.971.
Prior to the study, participants were randomly assigned to receive either 3 g per day of HMB-FA or a placebo divided equally into three servings. Each serving was formulated with 1 g of HMB-FA. The first serving was given 30 min prior to exercise and the remaining two servings given with the mid-day and evening meals. On the non-training days, participants were instructed to consume one serving with each of three separate meals throughout the day. […]

[3] = Comparison of the CaHMB and HMB-acid strength studies; conditions: comparison of two separate studies
Experimental: A study was conducted to examine the effects of CaHMB on strength. A second study was conducted to examine the effects of HMB-acid on strength. The results of these studies were then compared to determine the improved efficacy of HMB-acid over CaHMB on increasing strength gains.
Thirty-two male volunteers 19-22 yr of age were selected for the study. Body weight averaged 99.3±3.4 kg with a range of 72-136 kg and height was 185±1.5 cm with a range of 170-198 cm. Almost all subjects were engaged in some form of exercise program before the study.
Body composition was measured with TOBEC except that all subjects were measured after an overnight fast. Measurements were made on the Friday morning before the start of the experiment and each Friday thereafter. Strength measurements were made the week before the study and consisted of three standard strength measurements: the bench press, the squat, and the hang clean. Treatments and exercise regimens were started on Monday. The exercise regimen consisted of weight training 6 day s/wk, which included work on all major muscle groups, and lasted from 2 to 3 h/day. Aerobic training was also included in the exercise workout at least three times per week. […]
Differences between the two treatment groups were determined with at-test. […] Trends were determined for 0.05<P<0.11, and differences were considered not significant for P>0.11. […]

[4] = after 12 weeks of training, 3 g per day

CC(C)(O)CC(=O)O [HMB-acid, 3-hydroxy-3-methylbutyric acid]
time to peak plasma HMB, retention and bioavailability versus CaHMB [1]: faster time to peak plasma levels, greater retention of HMB, and improved bioavailability | increase in vertical jump power ([2]; after 12 weeks): 19% | strength increase, bench press [2, 4]: 12% | strength increase, deadlift [2, 4]: 16% | strength increase, squat [2, 4]: 25% | strength increase, total strength [2, 4]: 18% | increase in Wingate peak power ([2]; over the 12-week study): 18% | total strength increase ([2]; over the 12-week study, 3 g per day): 77.1 ± 18.4 kg | net percent increase per week in squat and bench press, greater than with CaHMB [3]: ~80%
